Tests used:
[1] = tested on: BEAS2B cells; test: Poly I:C-induced ICAM-1 induction in BEAS2B cells; assay type: cell-based, human; settings: at 10 ug/ml
Experimental: Poly I:C (1 ug/ml) (Invivogen Ltd., San Diego, Calif.) was transfected into BEAS2B cells (human bronchial epithelial cells, ATCC) with Oligofectamine (Invitrogen, Carlsbad, Calif.). Cells were pre-incubated with final concentrations of compound for 2 hrs. The level of ICAM1 expression on the cell surface was determined by cell-based ELISA. Briefly, at 18 hrs after poly I:C transfection, cells were fixed with 4% formaldehyde in PBS. After quenching endogenous peroxidase by adding 0.1% sodium azide and 1% hydrogen peroxide, cells were washed with wash-buffer (0.1% Tween in PBS: PBS-Tween). After blocking the wells with 5% milk in PBS-Tween for 1 hr, the cells were incubated with anti-human ICAM-1 antibody (Cell Signaling Technology, Danvers, Mass.) in 1% BSA PBS overnight at 4° C. Cells were washed with PBS-Tween and incubated with the secondary antibody (HRP-conjugated anti-rabbit IgG, Dako Ltd., Glostrup, Denmark).

[2] = tested on: BEAS2B cells; test: Rhinovirus-induced ICAM-1 expression in BEAS2B cells; assay type: cell-based, human
[3] = tested on: sputum macrophages; test: Sputum macrophage assay (LPS-induced IL-8 release); assay type: cell-based, human
[4] = tested on: differentiated U937 cells; test: LPS-induced IL-8 release in differentiated U937 cells; assay type: cell-based, human
Experimental: U937 cells, human monocytic cell line, were differentiated to macrophage-type cells by incubation with phorbol myristate acetate (PMA; 100 ng/ml) for 48 to 72 hours. Cells were pre-incubated with final concentrations of compound for 2 hrs. Cells were then stimulated with 0.1 μg/ml of LPS (from E. Coli: O111:B4, Sigma) for 4 hrs, and the supernatant collected for determination of the IL-8 concentration by sandwich ELISA (Duo-set, R&D systems).

[5] = tested on: THP-1 cells; test: LPS-induced TNFα release in THP-1 cells; assay type: cell-based; settings: Homo sapiens, read-out: IC50 Values LPS-induced TNFα release THP1 cells
Experimental: (§1) U937 cells, human monocytic cell line, were differentiated to macrophage-type cells by incubation with phorbol myristate acetate (PMA; 100 ng/ml) for 48 to 72 hr. Where appropriate, cells were pre-incubated with final concentrations of compound for 2 hr. Cells were then stimulated with 0.1 μg/ml of LPS (from E. Coli: O111:B4, Sigma) for 4 hr, and the supernatant collected for determination of TNFα concentration by sandwich ELISA (Duo-set, R&D systems). […] THP-1, human monocytic cell line, was also used for this assay. THP-1 cells were stimulated with 3 μg/ml of LPS (from E. Coli: O111:B4, Sigma) for 4 hr, and the supernatant collected for determination of TNFα concentration.

[6] = tested on: BEAS2B cells; test: Rhinovirus-induced IL-8 release in BEAS2B cells; assay type: cell-based, human
[7] = tested on: differentiated U937 cells; test: LPS-induced TNFα release in differentiated U937 cells; assay type: cell-based; settings: Homo sapiens, U-937, read-out: IC50 Values LPS-induced TNFα release d-U937 cells
Experimental: as §1

[8] = tested on: Human rhinovirus RV16 (HRV); test: Rhinovirus-titre assay in MRC5 cells; assay type: cell-based; settings: concentration range up to 1.9 μM
Experimental: All titrations were performed by infecting confluent Hela cell monolayers with serially diluted supernantant (10^−1 to 10^−5) and assessing cytopathetic effect by MTT assay 4 days after infection. The amount of virus required to infect 50% of Hela cells was calculated in each treatment as TCID50 U/mL. Compounds were added 24 and 2 hr before HRV infection and 1 hr after infection when non-infected HRV was washed out.

[9] = tested on: bronchoconstrictor response to ovalbumin challenge (sGaw); test: Ovalbumin challenge/parainfluenza infection model; assay type: in vivo, guinea-pigs; settings: 1.5 mg per day nebulised, sensitized animals treated with PIV3 medium (initial studies)
[10] = tested on: neutrophil and macrophage accumulation into airways; test: Cigarette smoke model; assay type: in vivo, A/J mice; set-up: dose or concentration left out as unconfirmed; settings: (35 μl, bid, in)
Experimental: A/J mice (males, 5 weeks old) were exposed to cigarette smoke (4% cigarette smoke, diluted with compressed air) for 30 min/day for 11 days using a Tobacco Smoke Inhalation Experiment System for small animals (Model SIS-CS; Sibata Scientific Technology, Tokyo, Japan). Test substances were given intra-nasally (35 μl of solution in 50% DMSO/PBS) and therapeutically twice daily for 3 days after the final cigarette smoke exposure. Twelve hours after the last dosing, animals were anesthetized, the trachea cannulated and bronchoalveolar lavage fluid (BALF) was collected. The numbers of alveolar macrophages and neutrophils were determined by FACS analysis (EPICS® ALTRA II, Beckman Coulter, Inc., Fullerton, Calif., USA) using anti-mouse MOMA2 antibody (macrophage) or anti-mouse 7/4 antibody (neutrophil).

Row | SMILES | effect on poly I:C induced ICAM1 expression in BEAS2B cells [1] | IC50 Values BEAS2B cells Rhinovirus-induced ICAM expression [2] | IC50 Values Sputum macrophages LPS-induced IL-8 release [3] | maximum inhibition of LPS-induced IL-8 release in differentiated U937 cells [4] [%] | IC50 [5] [nM] | IC50 Values BEAS2B cells Rhinovirus-induced IL-8 release [6] | IC50 [7] [nM] | effect on viral replication [8] | ovalbumin-mediated lung function changes [9] | macrophage accumulation into airways [10] | neutrophil accumulation into airways [10]
1 | Cc1ccc(-n2nc(C(C)(C)C)cc2NC(=O)Nc2ccc(OCCN3CCOCC3)c3ccccc23)cc1 [BIRB796] | no effect | NSE @ 1.9 μM | NSE @ 19 μM | 31 | 12 | NSE @ 1.9 μM | 20 | without effect | – | – | –
2 | CCC(=O)O[C@]1(C(=O)SCF)[C@H](C)C[C@H]2[C@@H]3C[C@H](F)C4=CC(=O)C=C[C@]4(C)[C@@]3(F)[C@@H](O)C[C@@]21C [fluticasone propionate] | – | – | – | – | – | – | – | – | inhibited | did not inhibit | did not inhibit
